Test results as given in patent US20210038732A1, “ANTICANCER MICRORNA AND LIPID FORMULATIONS THEREOF” (INTERNA TECHNOLOGIES B.V., priority 2018, published 2021).

Tests used:
[1] = tested on: 4T1; test: Cell motility, Boyden chamber assay; type: cell-based, mouse; details: 10 nM
Procedure: To check the migratory ability of cells, a Boyden Chamber assay was performed, which is based on a chamber of two medium-filled compartments separated by a […] pore size membrane (BD falcon). In this assay, depending on cell type 60,000-120,000 cells were seeded in the upper compartment of the membrane in serum free medium and were allowed to migrate through the pores of the membrane into the lower compartment, in which serum is present in the media. The serum acts as a chemoattractant. After an appropriate incubation time, the membrane between two compartments was fixed, stained and 6 different images from each membrane were taken. The number of migratory cells were counted using Image J analysis.
Different biological effects of miRNA-193a-3p have been tested in various cancer cell lines (see Table 13). For this, various cells were treated with miRNA-193a at different concentrations (1, 3, 10 nM). For all experiments controls (untreated, mock and scrambled) were measured. All assays were performed at 24h, 48h and 72h time points. […] All the results have been quantified and normalized to the mock control.
miRNA-193a treatment in various cancer cell lines decreased cell viability over time as measured by either an MTS assay or by cell count. It enhanced apoptosis induction over time as measured by a caspase 3/7 apoptosis assay. […]

[2] = tested on: MPP2, STMN1, YWHAZ, and CCNA2; test: Expression of G2/M related target genes by RT-PCR; type: cell-based, human; details: 10 nM; Hep3B, SNU449 and H1975; 24h, 48h and 72h; vs mock
Procedure: To prepare cDNA, first 100 ng total RNA was mixed with Random Hexamers (Qiagen; final concentration 2 μM) in a final volume of 12.5 μl in NFW, denatured for 5 min at 70° C. and immediately cooled on ice. Next, 7.5 μl of a cDNA synthesis mix was added, consisting of 4 μl 5×RT Buffer (Promega), 0.4 μl 25 mM dNTPs (Promega), 1 μl 200 U/μL MMLV RT-enzyme (Promega), 0.5 μL 40 U/μL RNAse Inhibitor (Promega) and 1.6 μL NFW. The following cDNA synthesis protocol was used:
Similar phenotype has been observed in Panc1 (pancreatic cancer cell) as well as H1975 (lung cancer cell) (data not shown). […] MPP2 and STMN1 associate with cytoskeleton and therefore regulate cell division and proliferation at the G2/M phase, while YWHAZ and CCNA2 play roles in regulation of G2/M phase checkpoint by binding and sequestering the cyclin-dependent kinases.

[3] = tested on: twelve syngeneic tumor models; test: Primary tumor growth in a panel of twelve syngeneic tumor models (significance); type: in vivo, mice
Text: In this study, the effect of miRNA-193a formulated in diamino lipid nanoparticles was investigated on the primary tumor growth in a panel of twelve syngeneic tumor models. Six to eight weeks mice (Shanghai Lingchang Bio-Technology Co. Ltd, Shanghai, China) were subcutaneously injected with an appropriate number of syngeneic cancer cells, depending on the cancer model (see Table 18). At the time of randomization, tumor volume (TV) was approximately 80-120 mm^3. Body weights and TVs (caliper measurements) were determined 2-3 times/week. After randomization (indicated as day 0) mice received PBS or miR-193a (formulated in diamino lipid nanoparticles) treatments as shown in Table 19. Each tumor model had two groups as depicted in Table 19. Mice were scheduled to be euthanized after two weeks of follow up after a maximum of four weeks of treatment.

[4] = tested on: H1299; test: Caspase 3/7 apoptosis assay; type: cell-based; details: 10 nM, normalized to mock
Procedure: (§1) Depending on cancer cell type 3000-6000 cells were seeded in a 96 well plate. After cells attached, they were transfected with different concentrations of miRNA-193a and apoptosis induction was measured at different time points. This assay was performed using Promega kit. 100 uL of caspase reagent was added to 100 uL of media in each well in 96-well plate and incubated for 2 hours in the dark at room temperature. The luminescent signal was read on a luminescent plate reader.
(§2) Different biological effects of miRNA-193a-3p have been tested in various cancer cell lines (see Table 13). For this, various cells were treated with miRNA-193a at different concentrations (1, 3, 10 nM). For all experiments controls (untreated, mock and scrambled) were measured. All assays were performed at 24h, 48h and 72h time points. Data shown in Table 13 are the results for miRNA-193a at 10 nM concentration at indicated time points. All the results have been quantified and normalized to the mock control.
(§3) miRNA-193a treatment in various cancer cell lines decreased cell viability over time as measured by either an MTS assay or by cell count. It enhanced apoptosis induction over time as measured by a caspase 3/7 apoptosis assay. […] It is of note that due to intrinsic characteristics and gene mutation status of each cell line, performing one method to detect apoptosis is not always ideal for all cell lines.

[5] = tested on: EMT6; test: Caspase 3/7 apoptosis assay; type: cell-based; details: 10 nM, normalized to mock
Procedure: as §1, §2, §3

[6] = tested on: HCT116; test: Caspase 3/7 apoptosis assay; type: cell-based; details: 10 nM, normalized to mock
Procedure: as §1, §2, §3

[7] = tested on: H1975; test: Caspase 3/7 apoptosis assay; type: cell-based; details: 10 nM, normalized to mock
Procedure: as §1, §2, §3

[8] = tested on: Panc-1; test: Caspase 3/7 apoptosis assay; type: cell-based; details: 10 nM, normalized to mock
Procedure: as §1, §2, §3

miRNA-193a: duplex of the miRNA-193a-3p of SEQ ID NO: 218 (mimic, sense) with antisense strand SEQ ID NO: 219; naked in vitro, formulated in vivo (sense UGGGACUUUGUAGGCCAGUUTT; antisense AACUGGCCUACAAAGUCCCAGU; chemistry not given here; listed as Homo sapiens)
Motility (18 to 24 h) [1]: ↓
Expression level of G2/M related target genes [2]: down-regulated
Tumor growth inhibition (TGI), significance ([3]; CT26, Renca, and Hepa1-6 models): did not induce significant TGI
Tumor growth inhibition (TGI), significance ([3]; H22, Pan02, B16-BL6, RM-1, B16F10, MC38, A20, and EMT-6 models): significantly induced tumor growth inhibition
Apoptosis (48/72 h) [4]: ↑ (Induction < 2x)
Apoptosis (48/72 h) [5]: ↑↑ (Induction > 2x)
Apoptosis (48/72 h) [6]: ↑↑ (Induction > 2x)
Apoptosis (48/72 h) [7]: ↑ (Induction < 2x)
Apoptosis (48/72 h) [8]: ↑↑ (Induction > 2x)
